# Measured values taken from patent publication US11360104B2, “Microbial-based biosensors” (TRUSTEES OF BOSTON UNIVERSITY, priority 2017, dated 2022).
# Like-named read-outs stand apart in the source and are kept apart here.
# Key:
# [1] = test system: TetR variant TetRc, tdTomato fusion (tetR-tdTomato); assay: FRET sensor 1 (tdTomato-TetRc + Cy5-DNA) titrated with aTc; aTc-induced TF-DNA unbinding; type: biochemical
# From the text: (§1) The TetO cognate sequence comprises a 19 bp binding region. The 19 bp cognate sequence was flanked by 4-5 bp on each side to ensure binding, resulting in a 28 bp DNA oligo. One of the strands was labeled with the FRET acceptor Cy5 on both the 5′ and 3′ ends. A second 28 bp sequence with no affinity for TetR was similarly labeled to act as the negative control (Table 4).
# (§2) Each sensor consists of Cy5-modified DNA acting as the FRET acceptor with either a fluorescent protein-transcription factor (FP-TF) fusion protein (expressed in E. coli) or quantum dot-transcription factor (QD-TF) conjugate as the donor.
# (§3) A TF to DNA ratio was chosen for each sensor (1:3 for Sensor 1, 1:4.5 for Sensors 2 and 3) and kept constant for subsequent experiments testing sensor sensitivity to aTc.
# (§4) To compare the three sensors, the sensor outputs were fit to a modified Hill equation written as:
# (§5) [formula] where S0 is the intensity of the sensor signal with no analyte present, S1 is the intensity of the sensor signal at saturating analyte concentration, c is the analyte concentration, EC50 is the concentration at which there is 50% signal (aka the effective concentration, or EC50), and h is the Hill coefficient, which indicates cooperative binding. For visual comparison, the sensor outputs were normalized and plotted together (FIGS. 4A and B).
# [2] = test system: TetR variant TetRd (TetR-6His, on QD2); assay: FRET sensor 3 (QD2-TetRd + Cy5-DNA) titrated with aTc; aTc-induced TF-DNA unbinding; type: biochemical
# From the text: as §1, §2, §3, §4, §5
# (§6) For Sensors 2 and 3, QDs and tetR-6His were mixed at a 1:4 ratio with a final QD concentration of 50 nM for self-assembly of the tetR-6His to the surface of the QDs^21.
# [3] = test system: TetR variant TetRc (TetR-6His, on QD1); assay: FRET sensor 2 (QD1-TetRc + Cy5-DNA) titrated with aTc; aTc-induced TF-DNA unbinding; type: biochemical
# From the text: as §1, §2, §3, §4, §5, §6
# Pimelobacter simplex = assay: Solvent and steroid exposure growth curves; settings: P. simplex, starting OD 0.005, constant solvent
# From the text: (§7) In order to identify steroid binding Transcription Factors, a whole transcriptome RNA sequencing (RNA-Seq) screen was developed (FIG. 7). The growth of Pimelobacter simplex bacteria was profiled with respect to the starting inoculation density, solvent toxicity, and the addition of steroids (FIG. 16). […] P. simplex bacteria were screened against the steroid solvents ethanol (EtOH) and dimethyl sulfoxide (DMSO). […] Steroid growth curves were similarly performed using a starting OD of 0.005 and constant solvent dosing with titrations of steroids. […] P. simplex bacteria were grown in the presence of 700 μM testosterone, 21.88 μM progesterone, 87.50 μM estrone, 21.88 μM 17β-estradiol, 21.88 μM hydrocortisone, or 175.00 μM aldosterone concentrations were selected for comparison.
# In order to properly determine the doubling time of the strain, growth curves were performed. All growth curves were done in 100 μL per well volumes in 96 well flat clear bottom black polystyrene TC-treated microplates which were individually wrapped with a lid and sterile (Corning #3603). Measurements were done by an Infinite M200 Pro (TECAN) spectrophotometer at the temperature suited for P. simplex. Readings were performed over 96 cycles of 15 minutes each at 600 nm absorbance with 25 flashes in a 3×3 (XY-Line) type reads per well. In between reads there was orbital shaking at 150 rpm frequency for a total of 10 minutes. In order to characterize the growth alone, a ½ serial dilution of 9 concentrations from 0.5-0.0020 OD600 nm were prepared in the respective media. Then each concentration was measured as previously described using a microplate reader (TECAN) and normalized against a media background control in technical triplicate. Afterward, an appropriate starting concentration of cells was chosen with a substantially long lag-phase, linear log phase, and a plateau of stationary-phase.
# Once an appropriate starting cell concentration was chosen, a secondary growth curve was performed to test the toxicity levels of the solvents used to dissolve steroids of interest. Since the steroids used are heavily hydrophobic, they often need to be dissolved in organic solvents such as DMSO or ethanol which are toxic to bacteria at high concentrations. P. simplex was incubated under microplate reader conditions previously mentioned at a starting OD determined by the first growth curve with DMSO, ethanol, or H2O at ½ serial dilutions for a total of eight concentrations (50-0.39%) tested in technical triplicate. Two controls were included per solvent; a positive control without solvent and a media control which allowed for appropriate normalization. Solvent exposure growth curves allowed for choosing the maximum amount of solvent concentration that strains would sustain while maintaining relative viability in order to determine a range of steroid concentrations which could be used.
# A tertiary growth curve was performed to test the toxicity levels of steroid specific to P. simplex. The strain was incubated under microplate reader conditions previously mentioned at a starting OD determined by the first growth curve and the highest solvent concentration corresponding to the steroid of interest with steroid at ½ serial dilutions for a total of seven concentrations tested in singlet. Testosterone, progesterone, 17β-estradiol, hydrocortisone, and aldosterone were all dissolved in ethanol while estrone was dissolved in DMSO. Three controls were included for each steroid; a positive control with the highest tolerable solvent concentration (%), a positive control with media, and a media control which allowed for normalization. Steroid exposure growth curves allowed for choosing the maximum amount of steroid concentration that P. simplex would sustain while maintaining relative viability.
# [4] = test system: steroid responsive genome island (SRGI); assay: Whole transcriptome RNA-Seq of steroid treated P. simplex; type: cell-based, Pimelobacter simplex; settings: P. simplex exposed to steroid vs solvent control, Log2 fold change
# From the text: as §7
# Using accession gene tags, genes were annotated for steroid relevant enzymes or transcription factors. […] Allosteric TF binding sequences are often palindromes and typically located near the start of its gene location in an intergenic space. With such a design, the allosteric TF can regulate itself or the open reading frame (ORF) near it in response to its effector molecule. […] Once identified, the TFs were cloned and recombinantly expressed for thorough characterization.
# Cells were grown in 6 mL volumes of media at the OD, solvent, and steroid concentrations found from the growth curves in 14 mL polypropylene round-bottom tubes (Corning #352059) in technical duplicate. The same controls as in the steroid exposure growth curve were used for setting up RNA extraction samples. The cells were incubated at their corresponding temperature with continuous orbital shaking at 150 rpm until the end of lag-phase, mid-log phase, or stationary phase from the start of inoculation. Afterward, samples were removed and a 1:1 ratio of RNAprotect Bacteria Reagent (Qiagen #76506) was added followed by spinning down at 4° C. for 10 minutes at 4000 g. Supernatant was removed and the pellet re-suspended in 300 μL of RNAprotect and transferred into 2.0 mL Safe-Lock Tubes (Eppendorf #3101). The samples were then spun down once again at 4° C. for 10 minutes at 10000 g. Once the supernatant has been removed the samples were placed on ice and ready for RNA extraction. RNA extraction was done by Qiacube (Qiagen #9001292) set to the RNeasy Protect Bacteria Mini Kit protocol of bacterial cell pellet with enzymatic lysis. Tube A was prepared as described except with the addition of 150 mg/mL lysozyme (Sigma-Aldrich #L6876) and 20 mg/mL proteinase K (Roche #03115879001) all diluted in 1xTE buffer. RNA samples were subsequently quantified using Qubit RNA HS Assay Kit (Thermo Fisher Scientific #Q32852) and analyzed using a RNA 6000 Pico Kit (Agilent 5067-1513) in a 2100 Bioanalyzer (Agilent G2939A). RNA samples were either immediately used for RNA-Seq library preparation or stored long-term at −80° C.
# RNA-Seq libraries were then produced from these samples using a slightly modified ScriptSeq v2 RNA-Seq Library Preparation Kit (Illumina 455A/22124) ensuring use of unique index primers through ScriptSeq Index PCR Primers (Sets 1-4) 48 rxns/set (Illumina #SSIP1234).
# PinR = PinR (Nocardioides simplex (Pimelobacter simplex), UniProt A0A0A1DUF2); assay: Cross-reactivity test with estradiol, 1:4:6 QD:TF:oligo sensor; type: biochemical; settings: FIG. 44E
# From the text: FIGS. 44A-44E show a schematic of the biosensor and emission plots. […] These two graphs show the difference between our sensor (blue) and negative control (orange). The lowest number of acceptor molecules with the largest difference between the signal and noise (difference between blue and orange) is the concentration ratio that we want to work with moving forward. The sensor tested moving forward comprised a 1:4:6 ratio of QD:TF:oligo-dye. Fda=Donor emission intensity in the presence of acceptor; Fd=Donor emission intensity in the absence of acceptor; Relative Donor Emission=Fda/Fd; FRET efficiency=1−Fda/Fd; Fa=Acceptor emission intensity in the presence of the donor; [QD]=50 nM; Oligo-Cy5:QD=0-48. […] When the TF is bound to the QD and the oligo is bound to the TF, which is more likely in the absence of the analyte (red line), the donor emission intensity is decreased and the acceptor emission intensity is increased (energy transfer from the QD to the dye on the oligo). The presence of the analyte decreases the affinity of the TF for the oligo, so binding is less likely; as a result, the donor emission intensity is increased and the acceptor emission intensity decreased. […] This same sensor was tested with estradiol (estrogen) as well to test for cross-reactivity. […]
# PinR, sequence (A0A0A1DUF2 entry or part of it): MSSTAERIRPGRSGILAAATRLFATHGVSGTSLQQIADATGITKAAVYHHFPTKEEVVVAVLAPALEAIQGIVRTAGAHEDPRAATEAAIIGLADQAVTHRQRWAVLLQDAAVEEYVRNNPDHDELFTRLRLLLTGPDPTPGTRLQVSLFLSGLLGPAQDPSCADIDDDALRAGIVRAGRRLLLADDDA
Compound,"h (Hill coefficient) ([1]; aTc, sensor 1)","EC50 ([1]; aTc, sensor 1, tdTomato:TF:DNA 1:1:3, Table 6 fit, read-out: EC50) [nM]","EC50 ([1]; sensor 1, legend of FIG. 4, read-out: c50 (analyte concentration that yields 50% signal, EC50)) [nM]","h (Hill coefficient) ([2]; aTc, sensor 3)","EC50 ([2]; aTc, sensor 3, QD:TF:DNA 1:4:18, Table 6 fit, read-out: EC50) [nM]","EC50 ([2]; sensor 3, legend of FIG. 4, read-out: c50 (analyte concentration that yields 50% signal, EC50)) [nM]","h (Hill coefficient) ([3]; aTc, sensor 2)","EC50 ([3]; aTc, sensor 2, QD:TF:DNA 1:4:18, Table 6 fit, read-out: EC50) [nM]","EC50 ([3]; sensor 2, legend of FIG. 4, read-out: c50 (analyte concentration that yields 50% signal, EC50)) [nM]",highest steroid concentration exhibiting normal growth profile (Pimelobacter simplex) [µM],upregulation of genes inside the SRGI [4],impact of concentration on the sensor binding/unbinding (Fa/Fd) (PinR)
"Cc1c2c(c(O)c3c(O)cccc13)C(=O)[C@]1(O)C(=O)C(C(N)=O)=C(O)[C@@H](N(C)C)[C@@H]1C2 [aTc, anhydrotetracycline]",1.57 ± 0.0802,218 ± 9.18,205,2.14 ± 0.185,133 ± 6.15,117,2.37 ± 0.191,699 ± 26.4,682,,,
"C[C@]12CC[C@@H]3c4ccc(O)cc4CC[C@H]3[C@@H]1CC[C@@H]2O [17β-estradiol, 17β-Estradiol]",,,,,,,,,,21.88,not,no impact
